According to patent US11299500B2, “Crystalline form of lorlatinib free base hydrate” (Pfizer Inc., priority 2017, dated 2022):
Each block holds one molecule with its values, some of them ahead of it.

Experiments:
[1] = test system: anaplastic lymphoma kinase (ALK); details: wild type and resistance mutant forms, including ALK G1202R; cited from earlier work
[2] = test system: c-ros oncogene 1 (ROS1) receptor tyrosine kinase; details: wild type and resistance mutant forms, including ROS1 G2032R; cited from earlier work
[3] = test system: ALK-positive NSCLC xenograft models and intracranial ALK-positive tumor models; details: cited from earlier work
[4] = Water sorption/desorption study by DVS; type: physicochemical
Procedure: A DVS method was employed to study the sorption/desorption behavior of Form 24.
Method: The method involved a standard sorption run from 0% RH to 90% RH, employing humidity rise at steps of 10% RH at 20° C., followed by a de-sorption run down to 0% RH and a second sorption/desorption cycle from 0% RH to 90% RH in 10% step change of RH at 20° C.

[5] = Physical stability in aqueous-based formulations; type: physicochemical; details: relative to anhydrous free base (Form 7) and acetic acid solvate (Form 3); e.g., topical formulations
[6] = targeted relative humidity 0% RH, 20° C.
[7] = targeted relative humidity 10% RH, 20° C.
[8] = targeted relative humidity 20% RH, 20° C.
[9] = targeted relative humidity 30% RH, 20° C.
[10] = targeted relative humidity 40% RH, 20° C.
[11] = targeted relative humidity 50% RH, 20° C.
[12] = targeted relative humidity 60% RH, 20° C.
[13] = targeted relative humidity 70% RH, 20° C.
[14] = targeted relative humidity 80% RH, 20° C.
[15] = targeted relative humidity 90% RH, 20° C.

Structure (SMILES): C[C@H]1Oc2cc(cnc2N)-c2c(nn(C)c2C#N)CN(C)C(=O)c2ccc(F)cc21 [Lorlatinib, (10R)-7-amino-12-fluoro-2,10,16-trimethyl-15-oxo-10,15,16,17-tetra-hydro-2H-8,4-(metheno)pyrazolo[4,3-h][2,5,11]benzoxadiazacyclotetradecine-3-carbonitrile]
potency against ALK [1]: nanomolar potency
potency against ROS1 [2]: nanomolar potency
antitumor activity [3]: demonstrated antitumor activity

hysteresis of de-sorption isotherms with respect to sorption isotherm ([4]; 0-90% RH, 20° C.): very little hysteresis
% Water First Cycle [4, 6]: 0.00%
% Water Second Cycle [4, 6]: 0.00%
% Water First Cycle [4, 7]: 0.06%
% Water Second Cycle [4, 7]: 0.06%
% Water First Cycle [4, 8]: 0.13%
% Water Second Cycle [4, 8]: 0.13%
% Water First Cycle [4, 9]: 0.19%
% Water Second Cycle [4, 9]: 0.20%
% Water First Cycle [4, 10]: 0.27%
% Water Second Cycle [4, 10]: 0.27%
% Water First Cycle [4, 11]: 0.34%
% Water Second Cycle [4, 11]: 0.35%
% Water First Cycle [4, 12]: 0.43%
% Water Second Cycle [4, 12]: 0.44%
% Water First Cycle [4, 13]: 0.52%
% Water Second Cycle [4, 13]: 0.54%
% Water First Cycle [4, 14]: 0.64%
% Water Second Cycle [4, 14]: 0.65%
% Water First Cycle [4, 15]: 0.78%
% Water Second Cycle [4, 15]: 0.78%
change of mass between a dry and wet state ([4]; water level change between dry and wet state): below 1%
physical stability in aqueous-based formulations [5]: improved physical stability
Structure (SMILES): C[C@H]1Oc2cc(cnc2N)-c2c(nn(C)c2C#N)CN(C)C(=O)c2ccc(F)cc21 [Form 24, (10R)-7-amino-12-fluoro-2,10,16-trimethyl-15-oxo-10,15,16,17-tetrahydro-2H-8,4-(metheno)pyrazolo[4,3-h][2,5,11]benzoxadiazacyclotetra-decine-3-carbonitrile (lorlatinib) Free Base Hydrate (Form 24)]
